These results are taken from PubChem BioAssay (NCI).

Common to all, as to assay: growth of human tumour cells (NCI), 48 h
For assay [1], the system named is SK-MEL-2 melanoma.
Assay [2] concerns HOP-62 NSCLC.
The subject of assay [3] is HOP-92 NSCLC.
Assay [4] relates to MOLT-4 leukemia.
In assay [5] the test system is CAKI-1 renal.
Assay [6] deals with HS 578T breast.
The test system of assay [7] is SK-MEL-28 melanoma.
Assay [8] relates to BT-549 breast.
Assay [9] relates to TK-10 renal.
Assay [10] relates to EKVX NSCLC.
In assay [11] the test system is MALME-3M melanoma.

Molecules are shown by their SMILES. Where “and” joins values, the source holds several entries; their conditions need not be identical. Equal values may be shown once.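 Grown in 96-well plates, cells were treated for 48 hours with each compound at five concentrations. Insufficient inhibition: endpoint recorded as highest concentration tested. GI50 is the concentration that inhibits growth by half. TGI denotes the concentration required for complete inhibition of growth.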 Starred links: 1 amine or outer side, 2 acyl side, 3 side chain; linkers in the order of their positions; H or OH if unused. Positions of bridges follow the written chain, without caps; N, C: chain ends. Non-standard residues stand in square brackets, D forms with d. Residues, ends and D or L forms follow the SMILES beside them. Chains are numbered I, II in the order given. Actinocin(1to9) = Cc1c2oc3c(C)ccc(C(=O)[*:2])c3nc-2c(C(=O)[*:1])c(N)c1=O; NMeV = CN[CH](C(=O)O)C(C)C; Sar = CNCC(=O)O Where only a bound is given, the exact number is not on record here.

In the case of `COc1cc2oc(=O)ccc2cc1C(=O)CC(C)C`, the TGI in [1] is greater than 100 µM; in assay [2], greater than 100 µM; in [3] it was greater than 100 µM; in [4], greater than 100 µM; in assay [5] it was 42.8 µM; in [6] it was greater than 100 µM. For the same compound, the TGI in [7], in [8], in assay [9] and in assay [10] was greater than 100 µM throughout.
Consider `CC(C)(C)OC(=O)NC(CCCCNC(=O)OCc1ccccc1)C(=O)NCCNc1ccc(NCCNC(=O)C(CCCCNC(=O)OCc2ccccc2)NC(=O)OC(C)(C)C)c2c1C(=O)c1ccccc1C2=O` (centres undefined), for which the TGI in assay [1] is 20.5 µM; in assay [2], greater than 74.3 µM; in assay [3], greater than 71.4 µM; in [4], greater than 100 µM; in [5], greater than 100 µM; in [6], greater than 49.7 µM. Further, the TGI in assay [11], in assay [7], in assay [8], in assay [9] and in [10] was greater than 100 µM each time.
For `CC(=O)OC1CC[C@@]2(C)C(=CC[C@@H]3[C@@H]2CC[C@]2(C)Nc4nn(S(C)(=O)=O)cc4C[C@@H]32)C1` (some centres undefined), the TGI was 58.8 µM in [1]; greater than 100 µM in assay [2]; greater than 100 µM in [3]; 53.9 µM in assay [4]; greater than 100 µM in assay [5]; greater than 100 µM in assay [6]. Moreover, the TGI in [11] is 78.6 µM; in assay [7] it was greater than 100 µM; in assay [8], 45 µM.
As for `O=C(CSc1nc2ccc([N+](=O)[O-])cc2s1)c1ccc2ccccc2c1`, the TGI in assay [1], in [2], in assay [3], in assay [4], in assay [5] and in assay [6] was greater than 100 µM in each case. In addition, the TGI in [11], in assay [7], in [8], in assay [9] and in assay [10] was greater than 100 µM throughout.
As to `Cc1ccccc1N=Nc1c(O)c(S(=O)(=O)O)cc2cc(S(=O)(=O)O)ccc12`, the TGI in assay [1], in assay [2], in assay [3], in assay [4], in [5] and in [6] was greater than 100 µM each time. The TGI in assay [11], in [7], in assay [8], in assay [9] and in assay [10] was greater than 100 µM in each case.
As for `Cn1c(=O)[nH]c2nncnc2c1=O`, the TGI in [1] was 312 µM; in assay [2], 181 µM; in assay [3], 71.2 µM; in [4] it was greater than 625 µM; in [5] it was 46.5 µM; in assay [11], 119 µM. For the same compound, the figures for the TGI in assay [7] and in [10] were greater than 625 µM and 289 µM, respectively.
In the case of `Nc1ncnc2c1sc1nc3ccccc3n12`, the TGI is greater than 100 µM in assay [1]; greater than 100 µM in [2]; greater than 100 µM in assay [3]; greater than 78.7 µM in assay [4]; greater than 100 µM in [5]; greater than 96.4 µM in [6]. In addition, the TGI in assay [11], in [7], in [8], in assay [9] and in assay [10] was greater than 100 µM each time.
`COCC1CCCN1c1ccc(C=N/C(C#N)=C(\N)C#N)cc1` (centres undefined): the GI50 in assay [1] is greater than 100 µM; in assay [2] it was 43.6 µM; in [3], 14.3 µM; in assay [6] it was greater than 100 µM; in [11] it was 7.75 µM; in assay [7], greater than 100 µM. Besides, the values for the GI50 in assay [8], in [9] and in [10] were 98.9 µM, 49.2 µM and greater than 100 µM, respectively. The TGI in assay [1] is greater than 100 µM; in assay [2], greater than 100 µM; in [3] it was 46 µM; in assay [6], greater than 100 µM; in assay [11], greater than 100 µM; in assay [7] it was greater than 100 µM. Further, the TGI in [8], in assay [9] and in [10] was greater than 100 µM throughout.
For the compound `O=c1c2cc(I)ccc2nc(SCc2nncs2)n1Cc1ccccc1`, the TGI in assay [1] is 85.5 µM; in [2], greater than 100 µM; in assay [3], 35.1 µM; in [4], greater than 100 µM; in [6] it was 57.8 µM; in [7], greater than 100 µM. Further, the values for the TGI in [8], in [9] and in assay [10] were greater than 100 µM, greater than 100 µM and 48.6 µM, respectively.
Turning to `COc1ccc(C(=O)C2=NON3OC23C(=O)c2ccc(OC)cc2)cc1` (centres undefined), the TGI in assay [1] was 34.5 µM; in assay [2], greater than 100 µM; in [3] it was 5.16 µM; in [4], greater than 21.9 µM; in assay [5] it was 6.79 µM; in assay [11] it was 25.7 µM. In addition, the TGI in assay [7] turned out to be 32.7 µM; in [9] it was 34.1 µM; in assay [10], 34.1 µM.
Consider `Cc1coc2c1C[C@@]1(C)[C@H](CCC[C@@H]1C)[C@H]2O`, for which the TGI in assay [2] was 75.1 µM; in assay [3], 66.2 µM; in assay [4], 59.7 µM; in [5], greater than 100 µM; in [6], greater than 100 µM; in assay [11] it was 44.7 µM. Besides, the TGI in assay [7], in assay [9] and in assay [10] was greater than 100 µM throughout.
`COc1c(CC=C(C)C)c(O)c(C(CC(C)C)c2c(O)c3c(c(C(C)=O)c2O)OC(C(C)(C)O)C3)c(O)c1C(C)=O` (centres undefined): the TGI was greater than 12.5 µM in assay [1]; greater than 12.5 µM in assay [2]; 6.43 µM in assay [3]; 5.9 µM in [4]; greater than 12.5 µM in assay [5]; greater than 12.5 µM in assay [6]. The TGI in assay [11] was greater than 12.5 µM; in [7] it was greater than 12.5 µM; in assay [8], 9.49 µM; in assay [10], greater than 12.5 µM.
`O=c1[nH]c(Nc2ccc(Cl)c(C(F)(F)F)c2)nc2nc[nH]c12`: the TGI in assay [1] is 91.2 µM; in assay [2] it was greater than 100 µM; in [3] it was greater than 100 µM; in assay [4], 62.4 µM; in assay [5], greater than 100 µM; in assay [6], greater than 100 µM. In addition, the TGI in assay [11], in assay [8], in assay [9] and in assay [10] was greater than 100 µM in each case.
`O=C(O[C@@H](/C=C/c1ccccc1)P1(=O)N(Cc2ccccc2)[C@H]2CCCC[C@@H]2N1Cc1ccccc1)c1ccccc1`: the TGI in assay [1] was 3.98 µM; in assay [2] it was 10.8 µM; in assay [3], 45.2 µM; in assay [5], 11.5 µM; in [6] it was greater than 100 µM; in assay [11] it was 31.6 µM. Also, the TGI in assay [7] was greater than 100 µM; in [8], greater than 100 µM; in [9], 37 µM; in assay [10], greater than 100 µM.
Consider `COCCNCc1ccc(-c2cc3nccc(Oc4ccc(NC(=S)NC(=O)Cc5ccc(F)cc5)cc4F)c3s2)nc1`, for which the GI50 in assay [1] was 6.01 µM; in assay [3] it was 1.22 µM; in [6], 1.81 µM; in assay [9], 2.45 µM; in assay [10], 2.5 µM. In addition, the TGI in assay [1] is 19.1 µM; in [3], 4.48 µM; in [6], 4.91 µM; in assay [9], 5.08 µM; in assay [10], 6.96 µM.
`O=c1ccc2nc3cc(Br)ccc3sc-2c1`: the TGI in assay [1], in assay [2], in assay [3], in assay [4], in assay [5] and in assay [11] was greater than 100 µM in each case. Moreover, the TGI in assay [7], in assay [9] and in assay [10] was greater than 100 µM in each case.
Consider `OCc1cn(C(c2ccccc2)(c2ccccc2)c2ccccc2)cn1`, for which the TGI was greater than 100 µM in assay [1]; greater than 100 µM in assay [2]; greater than 100 µM in assay [3]; greater than 100 µM in assay [4]; greater than 100 µM in [5]; 95.7 µM in assay [6]. Besides, the TGI in assay [7] and in assay [9] was greater than 100 µM in each case.
On to `N#CC12Cc3cc4c(cc3-c3cccc(c31)CCN2C(=O)c1ccccc1)OCO4` (centres undefined), for which the TGI in assay [1] was greater than 100 µM; in assay [2], greater than 100 µM; in [3], 89.5 µM; in [4], greater than 100 µM; in assay [11], greater than 100 µM; in assay [7], greater than 100 µM. Also, the TGI in [9] and in assay [10] was greater than 100 µM each time.
`CCOC(=O)C(/C(=N/S(=O)(=O)c1cc(C)c(Cl)cc1[S-])[n+]1ccc(N(C)C)cc1)=C(/O)c1ccc([N+](=O)[O-])cc1`: the TGI was 28.3 µM in assay [1]; 78.7 µM in [2]; 23.9 µM in assay [3]; greater than 100 µM in [4]; 99.7 µM in assay [5]; 40.5 µM in assay [11]. In addition, the values for the TGI in assay [7], in assay [8] and in assay [9] were 83.5 µM, 92.7 µM and 58.7 µM, respectively.
Turning to `C[N+]1(CCC(=O)c2ccco2)CC2CCC(CC2)C1` (centres undefined), the TGI in assay [1], in assay [3], in assay [4], in assay [5], in [6] and in assay [11] was greater than 100 µM each time. Moreover, the TGI in assay [7], in assay [8], in assay [9] and in assay [10] was greater than 100 µM throughout.
Consider `OC(c1ccccc1)(c1ccccc1)c1nccc2ccccc12`, for which the TGI is 43.2 µM in [2]; 59.4 µM in assay [4]; greater than 100 µM in assay [5]; greater than 100 µM in assay [6]; 68 µM in assay [11]; greater than 100 µM in assay [7]. Further, the TGI in [8] was 37.2 µM; in assay [9] it was greater than 100 µM; in assay [10] it was 83.5 µM.
On to `CCC(C)C1NC(=O)C(NC(=O)c2c3nc4c(C(=O)NC5C(=O)NC(C(C)CC)C(=O)N6CCCC6C(=O)N(C)CC(=O)N(C)C(C(C)C)C(=O)OC5C)ccc(C)c4oc-3c(C)c(=O)c2N)C(C)OC(=O)C(C(C)C)N(C)C(=O)CN(C)C(=O)C2CCCN2C1=O` (centres undefined) (I: TIP[Sar][NMeV] / II: TIP[Sar][NMeV]; ester I:1-I:C, II:1-II:C; linker I:N-II:N via Actinocin(1to9); configuration not given here), for which the TGI in [1] was found to be 0.00277 µM; in assay [3] it was 0.085 µM; in assay [4], 0.0144 µM; in assay [5], 0.0861 µM; in [6], 0.0841 µM; in [11], 0.0202 µM. The TGI was 0.0152 µM in assay [7]; 0.58 µM in assay [8]; 0.0755 µM in [9]; 0.248 µM and 0.0692 µM in [10].
Regarding `Nc1c(C(=O)O)nnc2cc(Cl)c(Cl)cc12`, the TGI in [1], in assay [2], in assay [4], in assay [5], in assay [6] and in assay [11] was greater than 100 µM throughout. In addition, the TGI in assay [8], in assay [9] and in assay [10] was greater than 100 µM each time.
On to `Cc1c(N2C(=O)/C(=C/c3ccc(Cl)cc3)N=C2c2ccccc2)c(=O)n(-c2ccccc2)n1C`, for which the TGI in assay [1] was 39.9 µM; in [2], greater than 100 µM; in assay [3] it was 66.6 µM; in [4], greater than 100 µM; in assay [5], greater than 100 µM; in assay [11], greater than 100 µM. In addition, the TGI is greater than 100 µM in [8], 60.3 µM in assay [9] and 63.4 µM in assay [10].
On to `COc1ccc2nc3c(C(=O)NCCN(C)C)cccc3cc2c1`, for which the TGI in assay [1] was 5.44 µM; in [2] it was 7.71 µM; in assay [3], 5.76 µM; in assay [4], 8.4 µM; in [11] it was greater than 21.4 µM; in [7], 8.79 µM. In addition, the TGI in assay [10] is 6.25 µM.
